Experimental findings from ChEMBL document CHEMBL5257072, “Synthesis of Lathyrol PROTACs and Evaluation of Their Anti-Inflammatory Activities” (J Nat Prod, 2023) are described below.

Activity calls are given as the source filed them. The rule behind the calls is not given here.

For test [1], the system named is RAW264.7. As to the kind of experiment: Anti-inflammatory activity in mouse RAW264.7 cells assessed as inhibition of LPS-induced NO production incubated for 3 hrs followed by LPS addition and measured after 24 hrs. It is filed as functional, cell-based.
The test system of test [2] is RAW264.7. Nature of the test: Cytotoxicity against mouse RAW264.7 cells assessed as reduction in cell viability incubated for 24 hrs by CCK-8 method. It is filed as functional, cell-based. The conditions noted are these: RAW264.7, 24 h.
Test [3] relates to RAW264.7. Nature of the test: Antiinflammatory activity in LPS induced mouse RAW264.7 cells assessed as inhibition of nuclear translocation of NF-kappaB at 20 uM by immunofluorescence analysis. It is filed as functional, cell-based.
Test [4] relates to RAW264.7. Nature of the test: Antiinflammatory activity in LPS induced mouse RAW264.7 cells assessed as upregulation of Nrf2 expression at 5 to 20 uM. It is filed as functional, cell-based. The conditions noted are these: dose 5-20 µM.
Test [5] relates to RAW264.7. As to the kind of experiment: Antiinflammatory activity in LPS induced mouse RAW264.7 cells assessed as inhibition of NF-kappaB phosphorylation at 5 to 20 uM by immunofluorescence analysis. Conditions: dose 5-20 µM. The class given is functional, cell-based.
Test [6] deals with RAW264.7. Nature of the test: Induction of autophagy in LPS induced mouse RAW264.7 cells assessed as increase in LC3B-II expression at 5 to 40 uM by Western blot analysis. It is filed as functional, cell-based. Conditions: dose 5-40 µM. A general note: In western blotting, separated proteins are transferred to a membrane and probed.
In test [7] the target is Transcription factor MafF (Mus musculus) (UniProt O54791). Nature of the test: Induction of degradation of MAFF in mouse RAW264.7 cells at 20 uM measured after 24 hrs. It is filed as cell-based.
The test system of test [8] is RAW264.7. As to the kind of experiment: Antiinflammatory activity in LPS induced mouse RAW264.7 cells assessed as inhibition of […] phosphorylation at 5 to 20 uM by immunofluorescence analysis. Conditions: dose 5-20 µM. The class given is functional, cell-based.
The test system of test [9] is RAW264.7. Nature of the test: Antiinflammatory activity in LPS induced mouse RAW264.7 cells assessed as inhibition of ROS production by DCFH-DA staining based fluorescence assay. It is filed as functional, cell-based. Conditions: dose 5-20 µM.
Test [10] deals with RAW264.7. Nature of the test: Induction of autophagy in LPS induced mouse RAW264.7 cells assessed as increase in p62 expression at 5 to 40 uM by Western blot analysis. It is filed as functional, cell-based. Conditions: dose 5-40 µM.
Test [11] has as its system RAW264.7. Nature of the test: Antiinflammatory activity in LPS induced mouse RAW264.7 cells assessed as upregulation of heme oxygenase I expression at 5 to 20 uM. It is filed as functional, cell-based. The conditions noted are these: dose 5-20 µM.
The target in test [12] is Transcription factor MafF (Mus musculus) (UniProt O54791). As to the kind of experiment: Induction of degradation of MAFF in mouse RAW264.7 cells assessed as reduction in MAFF expression at 20 uM measured after 24 hrs. It is filed as cell-based.
Test [13] has the same target. As to the kind of experiment: Induction of degradation of MAFF in mouse RAW264.7 cells at 40 uM measured after 24 hrs. It is filed as cell-based.
For test [14] the target is unchanged. Nature of the test: Induction of degradation of MAFF in mouse RAW264.7 cells at 2.5 to 20 uM measured after 24 hrs. The class given is cell-based. Conditions: dose 2.5-20 µM.
Test [15] deals with RAW264.7. As to the kind of experiment: Antiinflammatory activity in LPS induced mouse RAW264.7 cells assessed as reduction in inducible nitric oxide synthase by immunofluorescence analysis. It is filed as functional, cell-based. Conditions: dose 5-20 µM.
Test [16] has as its target Transcription factor MafF (Mus musculus) (UniProt O54791). Nature of the test: Induction of degradation of MAFF in mouse RAW264.7 cells at 20 uM incubated for 24 hrs in presence of MG132 by Western blot analysis. It is filed as cell-based.
Test [17] concerns RAW264.7. As to the kind of experiment: Cytotoxicity against mouse RAW264.7 cells assessed as reduction in cell viability at 25 uM incubated for 24 hrs by CCK-8 method. It is filed as functional, cell-based. Background: Formazan colour is commonly taken as a measure of viable cells.

Sequence of Transcription factor MafF (Mus musculus) (O54791 whole entry): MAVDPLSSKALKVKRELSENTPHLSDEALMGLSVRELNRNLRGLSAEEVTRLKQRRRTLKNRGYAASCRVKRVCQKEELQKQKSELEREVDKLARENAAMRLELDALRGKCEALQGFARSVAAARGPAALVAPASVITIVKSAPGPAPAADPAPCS

In general, IC50 refers to the point on the concentration scale where inhibition reaches its midpoint. Take `C=C1CC[C@H]2[C@@H](/C=C(\C)C(=O)[C@@]3(O)C[C@H](C)[C@H](O)[C@@H]3[C@H]1OCc1cn(CC(=O)N[C@H](C(=O)N3C[C@H](O)C[C@H]3C(=O)N[C@H](C)c3ccc(-c4scnc4C)cc3)C(C)(C)C)nn1)C2(C)C`: the figures for the half-maximal inhibitory concentration (IC50) with RAW264.7 [1] and in the test on RAW264.7 [2] were more than 20 µM and more than 50 µM, respectively.
Turning to `C=C1CC[C@H]2[C@@H](/C=C(\C)C(=O)[C@@]3(O)C[C@H](C)[C@H](O)[C@@H]3[C@H]1OCc1cn(CCOCCOCCNC(=O)[C@H](CC(C)C)NC(=O)[C@@H](O)[C@@H](Cc3ccccc3)NC(=O)OC(C)(C)C)nn1)C2(C)C`, the outcome (with RAW264.7 [3]; in the test with RAW264.7 [4]; in the test on RAW264.7 [5]; in the test with RAW264.7 [6]; in test [7]; with RAW264.7 [8]) was Active. For the same compound, the result (in the test with RAW264.7 [10]; with RAW264.7 [11]; in test [12]; in [14]) was Active. Moreover, the half-maximal inhibitory concentration (IC50) in the test on RAW264.7 [1] was 5.3 µM; in the test with RAW264.7 [2], more than 50 µM. Besides, the Activity entry with RAW264.7 [9] and with RAW264.7 [15] was “Dose-Dependent Effect” throughout. In addition, the result in test [13] and in test [16] was inactive.
With `C=C1CC[C@H]2[C@@H](/C=C(\C)C(=O)[C@@]3(O)C[C@H](C)[C@H](O)[C@@H]3[C@H]1OCc1cn(CC(=O)N[C@H](Cc3ccccc3)[C@H](O)C(=O)N[C@@H](CC(C)C)C(=O)OC)nn1)C2(C)C`, the IC50 is more than 20 µM in the test on RAW264.7 [1] and more than 50 µM in the test with RAW264.7 [2].
For `C=C1CC[C@H]2[C@@H](/C=C(\C)C(=O)[C@@]3(O)C[C@H](C)[C@H](O)[C@@H]3[C@H]1OCc1cn(CCCC(=O)N[C@H](C(=O)N3C[C@H](O)C[C@H]3C(=O)N[C@H](C)c3ccc(-c4scnc4C)cc3)C(C)(C)C)nn1)C2(C)C`, in that order: more than 20 µM and more than 50 µM.
Consider `C=C1CC[C@H]2[C@@H](/C=C(\C)C(=O)[C@@]3(O)C[C@H](C)[C@H](O)[C@@H]3[C@H]1OCc1cn(CCCCCC(=O)N[C@H](C(=O)N3C[C@H](O)C[C@H]3C(=O)NCc3ccc(-c4scnc4C)cc3)C(C)(C)C)nn1)C2(C)C`, for which the IC50 in the test on RAW264.7 [1] is more than 20 µM. In the test with RAW264.7 [17], the result was Active.
`C=C1CC[C@H]2[C@@H](/C=C(\C)C(=O)[C@@]3(O)C[C@H](C)[C@H](O)[C@@H]3[C@H]1OCc1cn(CCCCCC(=O)N[C@H](C(=O)N3C[C@H](O)C[C@H]3C(=O)N[C@H](C)c3ccc(-c4scnc4C)cc3)C(C)(C)C)nn1)C2(C)C`: the results for the IC50 with RAW264.7 [1] and in the test with RAW264.7 [2] were more than 20 µM and more than 50 µM, respectively.
Turning to `C=C1CC[C@H]2[C@@H](/C=C(\C)C(=O)[C@@]3(O)C[C@H](C)[C@H](O)[C@@H]3[C@H]1OCc1cn(CCOCCOCCOCCNC(=O)CN3CCN(C(=O)N4C(c5ccc(OC)cc5OC(C)C)=N[C@H](c5ccc(Cl)cc5)[C@@H]4c4ccc(Cl)cc4)CC3=O)nn1)C2(C)C`, the IC50 in the test with RAW264.7 [1] is more than 20 µM. Also, the outcome in the test on RAW264.7 [17] was Active.
`C=C1CC[C@H]2[C@@H](/C=C(\C)C(=O)[C@@]3(O)C[C@H](C)[C@H](O)[C@@H]3[C@H]1OCc1cn(CCCC(=O)N[C@H](C(=O)N3C[C@H](O)C[C@H]3C(=O)NCc3ccc(-c4scnc4C)cc3)C(C)(C)C)nn1)C2(C)C`: the IC50 in the test on RAW264.7 [1] is more than 20 µM; with RAW264.7 [2], more than 50 µM.
For the compound `C=C1CC[C@H]2[C@@H](/C=C(\C)C(=O)[C@@]3(O)C[C@H](C)[C@H](O)[C@@H]3[C@H]1OCc1cn(CCOCCOCCOCCOCCNC(=O)CN3CCN(C(=O)N4C(c5ccc(OC)cc5OC(C)C)=N[C@H](c5ccc(Cl)cc5)[C@@H]4c4ccc(Cl)cc4)CC3=O)nn1)C2(C)C`, in the test on RAW264.7 [1], the concentration for half-maximal inhibition (IC50) is more than 20 µM. In the test with RAW264.7 [17], the result was Active.
In the case of `C=C1CC[C@H]2[C@@H](/C=C(\C)C(=O)[C@@]3(O)C[C@H](C)[C@H](O)[C@@H]3[C@H]1OCc1cn(CCCC(=O)N[C@H](Cc3ccccc3)[C@H](O)C(=O)N[C@@H](CC(C)C)C(=O)OC)nn1)C2(C)C`, the IC50 in the test with RAW264.7 [1] was more than 20 µM; in the test with RAW264.7 [2], more than 50 µM.
With `C=C1CC[C@H]2[C@@H](/C=C(\C)C(=O)[C@@]3(O)C[C@H](C)[C@H](O)[C@@H]3[C@H]1OCc1cn(CCCCCC(=O)N[C@H](Cc3ccccc3)[C@H](O)C(=O)N[C@@H](CC(C)C)C(=O)OC)nn1)C2(C)C`, the figures for the IC50 in the test with RAW264.7 [1] and in the test on RAW264.7 [2] were more than 20 µM and more than 50 µM, respectively.
On the same counts, the results for `C=C1CC[C@H]2[C@@H](/C=C(\C)C(=O)[C@@]3(O)C[C@H](C)[C@H](O)[C@@H]3[C@H]1OCc1cn(CCOCCOCCOCCNC(=O)[C@H](CC(C)C)NC(=O)[C@@H](O)[C@@H](Cc3ccccc3)NC(=O)OC(C)(C)C)nn1)C2(C)C` are more than 20 µM and more than 50 µM.
On the same counts, the results for `C=C1CC[C@H]2[C@@H](/C=C(\C)C(=O)[C@@]3(O)C[C@H](C)[C@H](O)[C@@H]3[C@H]1OCc1cn(CCOCCOCCOCCOCCNC(=O)[C@H](CC(C)C)NC(=O)[C@@H](O)[C@@H](Cc3ccccc3)NC(=O)OC(C)(C)C)nn1)C2(C)C` are more than 20 µM and more than 50 µM.
For `C=C1CC[C@H]2[C@@H](/C=C(\C)C(=O)[C@@]3(O)C[C@H](C)[C@H](O)[C@@H]3[C@H]1OCc1cn(CC(=O)N[C@H](C(=O)N3C[C@H](O)C[C@H]3C(=O)NCc3ccc(-c4scnc4C)cc3)C(C)(C)C)nn1)C2(C)C`, the values for the IC50 in the test on RAW264.7 [1] and in the test with RAW264.7 [2] were more than 20 µM and more than 50 µM, respectively.
For the compound `C=C1CC[C@H]2[C@@H](/C=C(\C)C(=O)[C@@]3(O)C[C@H](C)[C@H](O)[C@@H]3[C@H]1OCc1cn(CCOCCOCCNC(=O)CN3CCN(C(=O)N4C(c5ccc(OC)cc5OC(C)C)=N[C@H](c5ccc(Cl)cc5)[C@@H]4c4ccc(Cl)cc4)CC3=O)nn1)C2(C)C`, the IC50 in the test with RAW264.7 [1] was more than 20 µM. Besides, the result in the test on RAW264.7 [17] was Active.
